# In paper PMC8050080, “Cannabis sativa terpenes are cannabimimetic and selectively enhance cannabinoid activity” (Scientific Reports, 2021):
# Columns and labels:
# [1] = test system: male and female CD-1 mice; experiment: Tail flick thermal latency test (antinociception); type: in vivo; details: Fig. S1
# Procedure: Antinociception was tested using the tail flick thermal latency test. Mice were baselined by gently restraining the animal and lowering the distal portion of the tail into a water bath set to 52 °C or 47 °C where stated, and the latency to flick the tail recorded with a stopwatch, with a 10 s cutoff. Mice were then injected with compounds intraperitoneally (i.p.). Thermal latency was then assessed over a time course of 2 h, or at a single time-point as noted. […] For assays using terpene/WIN55,212-2 co-treatment, WIN55,212-2 was co-administered with terpene in the same solution.
# human mu opioid receptor = biological target: T1, human mu opioid receptor (Homo sapiens, UniProt P35372); type: cell-based; details: 500 μM terpene or 10 μM morphine, 5 min, Fig. S13A
# T1 construct: host or cells: CHO (MOR-CHO)
# Procedure: Cells were plated in 6-well plates 24 h prior to the start of the experiments. Cells were serum starved for 1 h then treated for 5 min with compound. In antagonist experiments, cells were pretreated for 5 min before agonist treatment for 5 min. […] Cells were scraped and collected. Lysates were vortexed then centrifuged at 13 k rpm at 4 °C for 10 min. Lysates were then processed for Western blots or stored at − 80 °C.
# CHO cells were serum starved for 1 hr, then treated with Vehicle, 10 μM morphine, or 500
# μM terpene for 5 min. ERK was quantitated and reported as above. Data expressed as the
# vs. Vehicle group by 1 Way ANOVA with Dunnett’s post hoc test. B) MOR-CHO cells
# serum starved for 1 hr, then pre-treated with Vehicle or 10 μM naloxone for 10 min, then
# treated with Vehicle, 10 μM morphine, or 500 μM terpene for 5 min. ERK quantitated,
# reported, and normalized as in A (n=3 independent experiments). *, **** = p < 0.05,
# 0.0001 vs. terpene-alone group for each set by 1 Way ANOVA with Sidak’s post hoc test
# (set up as pairwise comparisons between terpene and terpene + naloxone for each set). For
# both, representative blots are shown below each graph.
# CB1 [2] = biological target: T2, CB1 (Homo sapiens, UniProt P21554); type: cell-based; design: expressed in transfected cells; host or cells: CHO (CB1-CHO-βarr2 / CB1-CHO-DX), gift from Dr. Robert Laprairie; details: Fig. S14C
# [3] = test system: male and female CD-1 mice; experiment: Open field test (hypolocomotion); details: for distance traveled and mobile time, experiment without baseline recording: vs Vehicle, Fig. S3A,B
# Procedure: All experiments were performed on male and female CD-1 (a.k.a. ICR) mice obtained from Charles River in age-matched cohorts of 5–6 weeks of age. […] The animals were maintained in an AAALAC-accredited vivarium at the University of Arizona in temperature and humidity-controlled rooms on a 12-h light/dark cycle. Standard chow and water were available ad libitum. […] Mice were randomized to treatment group by randomization of mice to cages upon arrival, and block random assignment of cages to treatment group. The experimenter was blinded to treatment group by the delivery of coded drug vials. The groups were not decoded until all data had been acquired.
# The open field test was used to determine potential hypolocomotive properties induced by terpene and cannabinoid treatment. The open field box was a white box with an open top and black floor. The tracking area was 30 cm × 28 cm. Mice were baselined by placing the mouse in the center of the box and recording from a video camera ~ 1.5 m above for a period of 5 min. Mice were then injected with compound and placed back in the open field box 10–15 min post-injection. In follow-up experiments, mice were not baselined, injected with compound, and placed in the open field box from 10 to 15 min. The total distance traveled and mobile time of mice were analyzed using AnyMaze software.
# CB1 [4] = biological target: T2, CB1; experiment: biochemical; type: binding; details: CB1-CHO membranes; for competition for the orthosteric binding site against CP55,940: Fig. 8A
# [5] = test system: male and female CD-1 mice; experiment: Catalepsy ring test; type: in vivo; details: for catalepsy vs baseline: 15 min after i.p. 200 mg/kg terpene or 5.6 mg/kg WIN55,212-2, Fig. S2B
# Procedure: Potential induction of catalepsy was assessed using the ring test as described. Mice were baselined, injected with compound, and then assessed with the ring test at 15 min post-injection. Data was represented as the percentage (%) of time in a “cataleptic” immobile state over the 5 min observation period.
# [6] = test system: male and female CD-1 mice; experiment: Hypothermia (core temperature, rectal thermometer); type: in vivo; details: 30 min after i.p. 200 mg/kg terpene or 5.6 mg/kg WIN55,212-2, Fig. S2A
# Procedure: Changes in core temperature were assessed using a lubricated rectal thermometer placed 1.0 cm into the mouse rectum. Temperature was assessed before treatment and 30 min post-treatment.
# WT CHO cells = experiment: ERK phosphorylation (Western) in WT CHO cells; type: cell-based; details: for ERK phosphorylation in WT CHO cells: 500 μM terpene or 10 μM WIN55,212-2, 5 min, Fig. 7B
# Procedure: WT-CHO cells were obtained from ATCC (#CCL-61). CHO cells stably expressing the human CB1 receptor were obtained from PerkinElmer (#ES-110-C) and utilized for western blots (CB1-CHO-C2) or binding assays (CB1-CHO-C3). HitHunter (CB1-CHO-cAMP) and PathHunter (CB-CHO-βarr2) assays were performed on respective CB1-CHO lines, and were a kind gift from Dr. Robert Laprairie[44]. CHO cells stably expressing cloned CB2 (CB2-CHO) were produced by electroporation with the human CB2 N-3xHA tag cDNA (GeneCopoeia). A stable expressing population was selected for with 500 μg/mL G418. CHO cells stably expressing the human mu opioid receptor were obtained from PerkinElmer (#ES-542-C). All cells were grown on 10 cm dishes in DMEM/F-12 50/50 mix w/ L-glutamine and 15 mM HEPES (Corning) containing 10% heat-inactivated fetal bovine serum, 100 units/mL penicillin, 100 units/mL streptomycin, and 400 μg/mL G418 (CB1-CHO-C2, CB1-CHO-C3, CB2-CHO, MOR-CHO); 800 μg/mL G418 (CB1-CHO-cAMP); 800 μg/mL G418 and 300 μg/mL hygromycin B (CB1-CHO-βarr2). WT CHO were grown as stated above without selection antibiotic. Cells were incubated in a humidified incubator at 37 °C with 5% CO2 and were sub-cultured every 2–3 days.
# Cells were plated in 6-well plates 24 h prior to the start of the experiments. Cells were serum starved for 1 h then treated for 5 min with compound. In antagonist experiments, cells were pretreated for 5 min before agonist treatment for 5 min. Media was then aspirated, cells were placed on ice, washed with ice-cold PBS once, and lysis buffer (20 mM Tris–HCl, pH 7.4, 150 mM NaCl, 2 mM EDTA, 0.1% SDS, 1% Nonidet P-40, 0.25% deoxycholate, 1 mM sodium orthovanadate, 1 mM PMSF, 1 mM sodium fluoride, and a protease inhibitor cocktail (EMD Millipore)), was added. Cells were scraped and collected. Lysates were vortexed then centrifuged at 13 k rpm at 4 °C for 10 min. Lysates were then processed for Western blots or stored at − 80 °C.
# Cell lysate protein was quantified with a modified BCA protein assay using manufacturers protocol (Bio-Rad). Samples (20–30 μg) were ran on precast gels (10% Bis–Tris, Bolt brand, from ThermoFisher). Gels were wet-transferred to nitrocellulose membranes at 30 V for at least 60 min at 4 °C. Blots were blocked with 5% non-fat dry milk in TBS for 30 min, washed 3 × for 5 min with TBS + 0.1% Tween-20 (TBST), and incubated with primary antibody overnight at 4 °C. Primary antibody: pERK and tERK (Cell Signaling) at 1:1000 dilution in 5% BSA in TBST. Blots were then washed 3 × with TBST then incubated with secondary antibodies for 90 min at room temperature. Secondary antibodies: Goat anti-Rabbit 800 W and Goat anti-Mouse 680 diluted at 1:10,000 and 1:20,000 (Licor), respectively, in 5% non-fat milk in TBST. Blots were washed 3X with TBST and 1 × with TBS, then imaged on a Licor Odyssey Fc or Azure Sapphire. Bands were analyzed using Image-J and reported as pERK/tERK normalized to the standard, or simply as pERK/tERK.
# [7] = test system: male and female CD-1 mice; experiment: Cannabinoid tetrad of behaviors (antinociception, hypolocomotion, catalepsy, hypothermia); type: in vivo; details: 200 mg/kg terpene i.p. (β-Caryophyllene control)
# From the text: Our first set of experiments sought to determine whether selected terpenes/terpenoids (α-Humulene, β-Pinene, Linalool [terpenoid], Geraniol [terpenoid], and β-Caryophyllene as a putative cannabinoid receptor type 2 [CB2] agonist control) had activity in the cannabinoid tetrad of behaviors mediated by the CB1 receptor: antinociception, hypolocomotion, catalepsy, and hypothermia. These terpenes were selected based on their quantities in Cannabis sativa, with α-Humulene, β-Pinene, Linalool, and β-Caryophyllene all being found in higher quantities and Geraniol in lower to underdetermined quantities. Although it is not clear if geraniol is present in higher quantities, we nonetheless chose this ligand due to its reported anti-nociceptive activity (e.g.[22]). Terpenes were administered at several doses (50–200 mg/kg) i.p. and assessed in the tail flick assay in male and female CD-1 mice. […]
# Antinociception was tested using the tail flick thermal latency test. Mice were baselined by gently restraining the animal and lowering the distal portion of the tail into a water bath set to 52 °C or 47 °C where stated, and the latency to flick the tail recorded with a stopwatch, with a 10 s cutoff. […] Thermal latency was then assessed over a time course of 2 h, or at a single time-point as noted. […]
# Potential induction of catalepsy was assessed using the ring test as described. […]
# CB1 [8] = biological target: T2, CB1; type: cell-based; details: varying concentrations, 5 min, Fig. 6
# Procedure: WT-CHO cells were obtained from ATCC (#CCL-61). […] CHO cells stably expressing cloned CB2 (CB2-CHO) were produced by electroporation with the human CB2 N-3xHA tag cDNA (GeneCopoeia). A stable expressing population was selected for with 500 μg/mL G418. […] All cells were grown on 10 cm dishes in DMEM/F-12 50/50 mix w/ L-glutamine and 15 mM HEPES (Corning) containing 10% heat-inactivated fetal bovine serum, 100 units/mL penicillin, 100 units/mL streptomycin, and 400 μg/mL G418 (CB1-CHO-C2, CB1-CHO-C3, CB2-CHO, MOR-CHO); 800 μg/mL G418 (CB1-CHO-cAMP); 800 μg/mL G418 and 300 μg/mL hygromycin B (CB1-CHO-βarr2). WT CHO were grown as stated above without selection antibiotic. Cells were incubated in a humidified incubator at 37 °C with 5% CO2 and were sub-cultured every 2–3 days.
# Cells were plated in 6-well plates 24 h prior to the start of the experiments. Cells were serum starved for 1 h then treated for 5 min with compound. In antagonist experiments, cells were pretreated for 5 min before agonist treatment for 5 min. […] Cells were scraped and collected. Lysates were vortexed then centrifuged at 13 k rpm at 4 °C for 10 min. […]
# Cell lysate protein was quantified with a modified BCA protein assay using manufacturers protocol (Bio-Rad). […] Bands were analyzed using Image-J and reported as pERK/tERK normalized to the standard, or simply as pERK/tERK.
# [9] = 200 mg/kg terpene or 5.6 mg/kg WIN55,212-2 i.p.
# T2 sequence (P21554 whole entry): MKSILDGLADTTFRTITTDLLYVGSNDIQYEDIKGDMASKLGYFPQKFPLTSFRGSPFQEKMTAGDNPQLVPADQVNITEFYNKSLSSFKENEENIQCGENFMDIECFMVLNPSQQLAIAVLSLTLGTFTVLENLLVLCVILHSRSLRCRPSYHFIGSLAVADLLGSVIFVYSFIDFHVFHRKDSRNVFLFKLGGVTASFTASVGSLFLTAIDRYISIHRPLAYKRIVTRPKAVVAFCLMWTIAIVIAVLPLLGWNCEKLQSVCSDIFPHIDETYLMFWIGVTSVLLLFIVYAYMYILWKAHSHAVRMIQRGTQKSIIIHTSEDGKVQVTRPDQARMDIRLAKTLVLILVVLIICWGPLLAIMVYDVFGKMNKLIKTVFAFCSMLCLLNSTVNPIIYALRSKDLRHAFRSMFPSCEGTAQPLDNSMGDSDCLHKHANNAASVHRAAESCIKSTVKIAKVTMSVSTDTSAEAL
# T1 sequence (P35372 whole entry): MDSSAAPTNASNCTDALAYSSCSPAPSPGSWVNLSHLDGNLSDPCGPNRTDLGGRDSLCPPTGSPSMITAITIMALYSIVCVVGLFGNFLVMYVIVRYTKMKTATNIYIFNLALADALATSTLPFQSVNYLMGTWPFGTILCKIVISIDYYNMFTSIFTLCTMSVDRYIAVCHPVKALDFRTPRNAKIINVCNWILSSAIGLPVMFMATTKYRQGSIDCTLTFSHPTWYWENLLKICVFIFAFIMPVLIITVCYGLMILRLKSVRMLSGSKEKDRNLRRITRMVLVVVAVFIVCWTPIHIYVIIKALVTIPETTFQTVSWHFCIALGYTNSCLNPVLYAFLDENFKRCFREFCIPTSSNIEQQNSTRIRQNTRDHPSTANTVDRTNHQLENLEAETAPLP
SMILES,"efficacy in the tail flick assay ([1]; terpene 50–200 mg/kg i.p., dose-dependent)",ERK stimulation in MOR-CHO cells (human mu opioid receptor),"effect of a full dose-range of Geraniol on WIN55,212-2 βarrestin2 recruitment (CB1 [2])","effect of istradefyllene pretreatment on mobile time ([3]; 10 mg/kg istradefyllene, 200 mg/kg terpene, Fig. 5)","effect of istradefyllene pretreatment on distance traveled ([3]; 10 mg/kg istradefyllene, 200 mg/kg terpene, Fig. S7)","locomotor activity vs baseline ([3]; 200 mg/kg terpene or 5.6 mg/kg WIN55,212-2 i.p., compared to baseline values, Fig. S2C,D, confounded by habituation)","distance traveled and mobile time, experiment without baseline recording [3, 9]","competition for the orthosteric binding site against CP55,940 (CB1 [4])","IC50 (CB1 [4]; mean (95% CI), n = 5, Fig. 8A, read-out: IC50, competition binding against 3H-CP55,940)","effect of istradefyllene pretreatment on catalepsy response ([5]; 10 mg/kg istradefyllene, 200 mg/kg terpene, Fig. 4)","effect of rimonabant pretreatment on catalepsy response ([5]; 10 mg/kg rimonabant, 200 mg/kg terpene, Fig. 4)",catalepsy vs baseline [5],hypothermia vs baseline [6],ERK phosphorylation in WT CHO cells (WT CHO cells),"tail flick antinociception (efficacy in words) ([1]; terpenes 50–200 mg/kg i.p. (β-Caryophyllene 100 mg/kg), WIN55,212-2 up to 10 mg/kg, over 2 h)",number of classic cannabinoid tetrad behaviors induced (out of 4) [7],"rimonabant sensitivity of ERK activation in WT CHO cells (WT CHO cells; 500 μM terpene after 10 μM rimonabant, Fig. 7C)",ERK activation in CB1-CHO cells (CB1 [8])
CC(C)=CCC/C(C)=C/CO [Geraniol],40–50%,no response,"dose-dependent reductions in WIN55,212-2 recruitment",significant reversal,istradefyllene reversal,significant reductions in locomotor activity,reductions in distance traveled and mobile time,full competition,44.2 µM,partially blocked,no impact,significant increases in cataleptic behavior,induced significant hypothermia,did not cause ERK phosphorylation,–,–,–,–
"C=C1CC/C=C(\C)CC[C@@H]2[C@@H]1CC2(C)C [β-Caryophyllene, reference compound]",–,produced ERK stimulation,–,–,–,–,did not result in significant reductions,some competition and semi-biphasic properties,–,–,–,did not induce,did not induce,activated ERK,low efficacy,did not,rimonabant-insensitive,activated downstream ERK signaling
